According to patent US20230293630A1, “Coronavirus T Cell Epitopes and Uses Thereof” (priority 2020, published 2023):
Where “and” joins values, the source holds several entries; their conditions need not be identical. Equal entries are not always repeated.

System: SARS-CoV-2-specific CD8+ T cells (CD69+CD137+) in PBMC
Assay type: cell-based, human
Wherever Magnitude of response is given: unit not given here.
Wherever Sum of response is given: unit not given here.

Sequence	Frequency of positive response	Magnitude of response	Sum of response
RLQSLQTY	33	142	142
HTTDPSFLGR	50	312	312
YKTFPPTEPK	50	139	139
AAISDYDYYR	100	290	290
EILPVSMTK	25 and 50		
VTYVPAQEK	33 and 25	435 and 235	435 and 235
YQDVNCTEV	50	243	243
KTFPPTEPKKDKKK	50	122	122
AISDYDYYR	100	173	173
KAYNVTQAF	50 and 33		
